In patent US12251385B2, “Covalent inhibitors of menin-MLL interaction for diabetes mellitus” (BIOMEA FUSION, INC., priority 2021, dated 2025):
Entries after “also recorded” stand apart in the source; their conditions may differ.

Assays:
[1] = system: Zucker Diabetic Fatty (ZDF) Rat; assay: ZDF rat model, 16 days dosing and drug washout to Day 29 (Example 105); assay type: in vivo; conditions: ZDF rats
Protocol: (§1) ZDF rats were treated daily with Compound 10, vehicle, or pioglitazone for sixteen days and monitored for an additional two weeks post-treatment until Day 29. STZ rat models were induced through pre-treatment of animals on a high-fat diet with low doses of streptozotocin at Day −14 and Day −7 prior to starting treatment at Day Zero until Day 16. ZDF and STZ rats were monitored for fasting blood glucose levels, oral glucose tolerance test (OGTT), insulin and C-peptide levels, HOMA-IR (Homeostatic Model Assessment of Insulin Resistance), blood lipemic levels, and body weight according to the schematic for each model below. ZDF rats were analyzed for indicated readouts for fifteen days post-treatment for OGTT at Day 29, and serum insulin and C-peptide at Day 31.
ZDF Rat Model—three treatment groups 1. Vehicle; 2. Compound 10 at 175 mg/kg; and 3. Pioglitazone at 30 mg/kg; n=10 per group. Daily dosing zero to sixteen days QD 4 drug wash out at sixteen to twenty-nine days. Rats were monitored for the following parameters through dosing and wash out phases—body weight, fasting blood sugar, blood insulin, C-peptide, and OGTT.

[2] = system: Streptozotocin-induced Rat (STZ); assay: STZ rat model, 16 days dosing (Example 105); assay type: in vivo; conditions: STZ rats
Protocol: as §1
STZ Rat Model—three treatment groups 1. Vehicle; 2. Compound 10 at 175 mg/kg; and 3. Pioglitazone at 30 mg/kg; n=10 per group. Fourteen-day STZ pretreatment prior to dosing. Daily dosing zero to sixteen days QD. Rats were monitored for the following parameters through dosing—body weight, blood glucose levels, and OGTT.

[3] = system: Type 2 Diabetes Mellitus (T2DM) Zucker Diabetic Fatty Rat model; assay: Glycemic control in ZDF rats, 28 days treatment plus 28 days post-treatment (Example 104); assay type: in vivo
Protocol: Rats were treated daily with Compound 10, liraglutide, or vehicle for twenty-eight days and monitored for an additional twenty-eight days post-treatment.

[4] = system: Zucker Diabetic Fatty (ZDF) rats; assay: Reduction in HbA1c in ZDF rats, 28 days dosing and washout (Example 106); assay type: in vivo, rat
Protocol: Zucker Diabetic Fatty (ZDF) rats were dosed daily with Compound 10, liraglutide, or vehicle for twenty-eight days (n=10 per group) and monitored for an additional twenty-eight days post last dose. Fasting blood glucose, insulin, C-peptide levels, HbA1c, oral glucose tolerance test (OGTT), and body weight were monitored during and post-treatment.
ZDF Rat Model—five treatment groups 1. Vehicle; 2. Compound 10 at 40 mg/kg; 3. Compound 10 at 85 mg/kg; 4. Compound 10 at 170 mg/kg; and 5. Liraglutide at 0.2 mg/kg; n=10 per group. Group 2 dose (40 mg/kg) was increased to 200 mg/kg on Day 17 for rest of the dosing phase. Daily dosing zero to twenty-eight days days QD 4 drug wash out twenty-eight to fifty-six days. Rats were monitored for the following parameters through dosing and wash out phases—body weight, fasting blood sugar, blood insulin, C-peptide, OGTT, and HbA1C.

[5] = system: Zucker diabetic fatty rats (ZDF rats, genotype ZDF-Lepr^fa/Crl); assay: Restoration of glycemic control in diabetic fatty rats, dosing Days 1-16 (Example 102); assay type: in vivo, rat
Protocol: The present examples provides the ability of Compound 10 to restore glycemic control to diabetic Zucker diabetic fatty rats (ZDF rats, genotype ZDF-Lepr^fa/Crl; Charles River). Cornicelli et al., 2005, Charles River.
(§2) Control and test compounds were stored at 4° C. and prepared weekly as needed. The vehicle for positive control pioglitazone was 0.25% carboxymethylcellulose and 1% Tween® 80 in reverse osmosis deionized water. The vehicle for Compound 10 was 10% DMSO, 10% Solutol HS 15, and 80% (10% hydroxypropyl-β-cyclodextrin in 50 mM citrate buffer at pH 3.0).
(§3) On Day −3, twenty-four ZDF rats (plus eight spare ZDF rats) were measured for body weight and non-fasting glucose. LabDiet 5008 was provided ad libitum throughout the study, except during designated procedures, as was water. In order to minimize the effects of stress on blood glucose and body, all animals including the spares received daily sham doses with phosphate buffered saline pH 7.2 (dose volume 5 mL/kg) via gavage beginning on Study Day −5 to Day −1.
Vehicle, control, and test compound were administered via oral gavage according to the following design on Days 1-16.
On Days −3, 1, 8, and 14 non-fasting blood glucose was measured. […] The animals were weighed, and the animals were placed in clean cages without food. Access to water was provided throughout the procedure. The animals were fasted for five hours and a blood glucose measurement was determined. The animals were dosed via oral gavage with 2 g/kg glucose (10 mL/kg). Blood glucose was determined via tail snip. The second drop of blood from the animal was placed on a hand-held glucometer (Abbott Alpha Trak) at the following times relative to the glucose dose: zero (just prior to glucose dose), 15, 30, 60, 90, and 120 min. Following the final blood glucose measurement, food was returned to the cages. On Day 17, 4-hour fasting glucose was measured. Serum samples were used to measure insulin by ELISA. Analysis was performed in one to three days of each collections. […]

[6] = system: streptozotocin (STZ) induced type II diabetes in Wistar Han rats; assay: Restoration of glycemic control in streptozotocin-induced rats (Example 103); assay type: in vivo, rat
Protocol: The present example provides the ability of Compound 10 to restore glycemic control to streptozotocin (STZ) induced type II diabetes in Wistar Han rats. Fahmy et al., 2017, World J. Pharm. Med. Res. 3(3):37-39.
as §2, with “3.0). The vehicle for streptozotocin pretreatment was 0.1 M sodium citrate pH 4.5.” for “3.0).”
as §3, with “Wistar Han” for “ZDF”, “Starting on Day −42, D12451 Research Diet” for “LabDiet 5008”, “−1. 20% Glucose in drinking water (200 g/L) was provided ad libitum for 24 hr after streptozotocin injection on Day −14 and Day −7.” for “−1.”
On Days −14 and −7, streptozotocin was administered at 30 mg/kg/day QD intraperitoneally. Starting on Day 1, control and test compound were administered on the following schedule.
On Days −7 to −1 and on Days 1, 8, and 14 non-fasting blood glucose was measured. On Day 15, an oral glucose tolerance test was administered. The animals were weighed and the animals were placed in clean cages without food. Access to water was provided throughout the procedure. The animals were fasted for five hours and a blood glucose measurement was determined. The animals were dosed via oral gavage with 2 g/kg glucose (10 mL/kg). Blood glucose was determined via venipuncture. The second drop of blood from the animal was placed on a hand-held glucometer (Abbott Alpha Trak) at the following times relative to the glucose dose: zero (just prior to glucose dose), 15, 30, 60, 90, and 120 min. Following the final blood glucose measurement, food was returned to the cages. On Day 17, 4-hour fasting glucose was measured. Serum samples were used to measure insulin by ELISA. Analysis was performed in one to three days of each collection. On Day 17, terminal blood collection was obtained at about 8 mL per animal and measured for blood glucose.

[7] = 175 mg/kg QD, after two weeks of treatment
[8] = 175 mg/kg QD, after two weeks of treatment, p<0.05
[9] = twenty-eight days of treatment, FIG. 18
[10] = up to the last day of dosing, lasting two weeks post last dose

C=CC(=O)N[C@@H]1CCCN(Cc2ccnc(C(=O)Nc3ccc(-c4cc5c(N6CCOCC6)ncnc5[nH]4)cc3)c2)C1 [Compound 10]
body weight ([1]; 175 mg/kg QD for sixteen days, 175 mg/kg): reduces body weight; also recorded: Significant reductions | blood lipemic levels (cholesterol, triglycerides) ([1]; 175 mg/kg QD for sixteen days, Day 17, p<0.01, 175 mg/kg): significantly reduces; also recorded: Significant reductions | reduction in fasting blood glucose levels [1, 7]: ~50% | reduction in non-fasting blood glucose levels [1, 7]: ~50% | HOMA-IR ([1]; 175 mg/kg QD, after two weeks of treatment, p<0.001): reduced | C-peptide levels [1, 8]: significantly reduced | serum insulin levels [1, 8]: significantly reduced | OGTT AUC reduction, Day 15 ([1]; 175 mg/kg QD, p<0.001): 54% | OGTT AUC reduction, Day 29 ([1]; drug washout, ~two weeks after the last dose, p<0.05): 40% | insulin sensitivity (HOMA-IR) ([1]; sixteen days of treatment, FIG. 16): increases insulin sensitivity | blood glucose, insulin, and C-peptide levels during drug washout ([1]; two weeks after the last dose, FIG. 14): maintains significant impact | body weight [2]: Significant reductions | blood glucose levels (non-fasting) during treatment ([2]; 175 mg/kg QD, measured weekly during treatment, FIG. 15B, 175 mg/kg): strongly reduces; also recorded: reduction of glucose levels | OGTT AUC reduction, Day 15 ([2]; Compound 10 175 mg/kg, pioglitazone 30 mg/kg QD, p<0.05): 41% | blood lipemic levels ([2]; p<0.01): Significant reductions | absolute reduction in HbA1C versus vehicle ([3]; 28 days daily treatment, Day 29, FIG. 12): 3.5% | HbA1C throughout the entire study, including post-treatment ([3]; FIG. 12): remained reduced | oral glucose tolerance test (OGTT) on Day 25 ([3]; both Compound 10 dose groups, in contrast to vehicle and liraglutide): improved glycemic control | tolerability ([3]; daily treatment for twenty-eight days, throughout the study): tolerated Compound 10 well | 4-hour fasting blood glucose ([3]; high-dose arm, during treatment up to Day 29): strong reduction | HbA1c, all doses tested ([4]; 4-week dosing study): significantly reduces; also recorded: significant reductions | fasting blood glucose levels, mid- and high-dose arms ([4]; 85 and 170 mg/kg QD, similar to liraglutide): reduction | HbA1c two weeks after the last dose ([4]; Day 15 post-dosing, FIG. 21): maintains a significant reduction | HbA1c absolute amount lower than the liraglutide group ([4]; Day 29): 1.8% | HbA1c absolute amount lower than the vehicle group ([4]; Day 29): 3.5% | HbA1c reduced from vehicle (relative) ([4]; Day 29): 33% | HbA1c relative reduction printed with the liraglutide comparison ([4]; Day 29, reduced from vehicle): 20% | glycemic control over four weeks of dosing ([4]; FIG. 20): durable glycemic control | fasting blood glucose, Day 29 ([4]; high-dose group, one day after treatment stopped): sustained and significant reduction | oral glucose tolerance test (OGTT) on Day 25, high-dose group ([4]; high-dose-treated group versus liraglutide): improved response versus liraglutide | oral glucose tolerance test (OGTT) on Day 25, all dose groups ([4]; in comparison to the vehicle-treated group): improved glycemic control | body weight over time [4, 9]: progressive increase | fasting blood glucose levels over time [4, 9]: progressive increase | fasting c-peptide levels [4, 10]: elevated | fasting insulin levels [4, 10]: elevated | insulin, non-fasting state ([5]; 175 mg/kg/day PO QD, Days 1, 8, 14, compared to vehicle and control, FIG. 2A): significant reduction | glucose, fasting state ([5]; 175 mg/kg/day PO QD, compared to vehicle and control, FIG. 1B): significant reduction | insulin, fasting state ([5]; 175 mg/kg/day PO QD, compared to vehicle and control, FIG. 2B): significant reduction | insulin resistance (HOMA), non-fasting state ([5]; 175 mg/kg/day PO QD, compared to vehicle and control, FIG. 3A): significant reduction | insulin resistance (HOMA), fasting state ([5]; 175 mg/kg/day PO QD, compared to vehicle and control, FIG. 3B): significant reduction | glucose, non-fasting state ([5]; Compound 10 175 mg/kg/day PO QD, compared to vehicle and control (pioglitazone), FIG. 1A): significant reduction | oral glucose tolerance test (blood glucose, AUC), Day 29 ([5]; Day 29, after fourteen days of no treatment, FIGS. 5A-5B): significant glucose control | C-peptide two weeks after therapy ([5]; FIG. 7): increasing C-peptide | oral glucose tolerance test (blood glucose, AUC) ([5]; after fifteen days of treatment, 2 g/kg glucose, FIGS. 4A-4B): significant glucose control | 4-hour fasting insulin after two weeks without therapy ([5]; no therapy for two weeks, statistically superior to control, FIG. 6A): increasing insulin | 4-hour fasting glucose after two weeks without therapy ([5]; no therapy for two weeks, statistically superior to control, FIG. 6B): glucose lowering | non-fasting glucose ([6]; STZ-induced Wistar Han rats, 175 mg/kg/day PO QD, compared to vehicle and control, FIG. 8): sharp reduction | insulin, 4-hour fasting state (FIG. 10B) ([6]; STZ-induced rats, Day 17): maintenance or reduction | insulin, non-fasting state (FIG. 10A) ([6]; STZ-induced rats, Days 1, 8 and 14): maintenance or reduction | insulin, non-fasting state (FIG. 9) ([6]; STZ-induced rats, Days 1 and 8): significant reduction | oral glucose tolerance test (blood glucose, AUC) ([6]; STZ-induced rats, after fifteen days of treatment, significant relative to vehicle and control, FIGS. 11A-11B): significant glucose control
